# Data reported in paper PMC11881016, “Deep‐Learning‐Based Approaches for Rational Design of Stapled Peptides With High Antimicrobial Activity and Stability” (Microbial Biotechnology, 2025).
# *1 amine or outer side, *2 acyl side, *3 side chain or, on linkers, in order; H or OH if unused. Where a SMILES comes first, the peptide text is derived from it. Bridges are numbered along the chain shown (N, C = ends). Where no end group is shown, it is not given here. [ ]: non-standard residue; d: D form. X1 = O=C([C@H](CCCCNCC=[*:3])N[*:1])[*:2]
# Tests used:
# any bacteria = assay: Wet experiment result (antimicrobial activity of the synthesised peptides, positive/negative); assay type: cell-based; settings: experiment data set (Supplement S12)
# From the text: Supplement MBT2-18-e70121-s002.doc, table 9 | column: Wet Exp. Result
# [1] = system: methicillin‐resistant Staphylococcus aureus (MRSA); assay type: cell-based; settings: for MIC MRSA: methicillin‐resistant; for increase of antibacterial activity against MRSA: stapled peptide compared to its linear peptide
# Method: (§1) Escherichia coli ( E. coli , ATCC25922), Klebsiella pneumoniae ( K. pneumoniae , ATCC10031), Staphylococcus aureus ( S. aureus , ATCC6538P), Pseudomonas aeruginosa ( P. aeruginosa , ATCC27853) and methicillin‐resistant Staphylococcus aureus (MRSA) were used to evaluate the antimicrobial activity of the peptides and were purchased from BeNa Culture Collection.
# (§2) The MICs of the peptides in vitro were determined using the broth microdilution method with minor modifications (Wiegand et al. [2008]). Peptides were incubated with bacteria (about 5 × 10^5 CFU/mL), and PBS was used as the negative control. After 18–24 h of incubation at 37°C, the bacteria were checked for growth by recording the values at OD600, with three replicates in each group.
# [2] = system: Escherichia coli (E. coli, ATCC25922); assay type: cell-based
# Method: as §1, §2
# [3] = system: Staphylococcus aureus (S. aureus, ATCC6538P); assay type: cell-based; settings: for MIC S. aureus: ATCC6538; for increase of antimicrobial activity against S. aureus: stapled peptide compared to its linear peptide
# Method: as §1, §2
# [4] = system: Pseudomonas aeruginosa (P. aeruginosa, ATCC27853); assay type: cell-based
# Method: as §1, §2
# [5] = system: Klebsiella pneumoniae (K. pneumoniae, ATCC10031); assay type: cell-based; settings: for MIC K. pneumoniae: ATCC10031; for increase of antimicrobial activity against K. pneumoniae: stapled peptide compared to its linear peptide
# Method: as §1, §2
# [6] = system: gram‐positive and gram‐negative bacteria; settings: external independent data set; ref Hu et al. ([2022]); cited from earlier work
# From the text: TABLE 3 Prediction results of external independent data set using 10 models. | column: Result ^a
MIC MRSA [1] [µg/mL],MIC E. coli [2] [µg/mL],MIC S. aureus [3] [µg/mL],MIC P. aeruginosa [4] [µg/mL],MIC K. pneumoniae [5] [µg/mL],Compound,Result (stapled AMP with high antimicrobial activity in the experiment) [6],further results
,64,16,64,32,CC[C@H](C)[C@H](NC(=O)CN)C(=O)NCC(=O)N[C@@H](CCCCN)C(=O)N[C@@H](Cc1ccccc1)C(=O)N[C@@H](CC(C)C)C(=O)N[C@@H](Cc1c[nH]cn1)C(=O)N[C@@H](CO)C(=O)N[C@@H](C)C(=O)N[C@@H](CCCCN)C(=O)N[C@@H](CCCCN)C(=O)N[C@@H](Cc1ccccc1)C(=O)NCC(=O)N[C@@H](CCCCN)C(=O)N[C@H]1CSSC[C@@H](C(=O)N[C@H](C(=O)N[C@@H](CC(C)C)C(=O)N[C@@H](CC(N)=O)C(=O)N[C@@H](CO)C(=O)O)[C@@H](C)CC)NC(=O)CNC(=O)[C@H](C(C)C)NC(=O)[C@H](Cc2ccccc2)NC1=O [Mag2(i + 4)14Dc] (H-GIGKFLHSAKKFGKCFVGCILNS-OH; disulfide 15-19),,
,512,> 512,> 512,256,CC[C@H](C)[C@H](NC(=O)CN)C(=O)NCC(=O)N[C@@H](CCCCN)C(=O)N[C@@H](Cc1ccccc1)C(=O)N[C@@H](CC(C)C)C(=O)N[C@@H](Cc1c[nH]cn1)C(=O)N[C@@H](CO)C(=O)N[C@@H](C)C(=O)N[C@@H](CCCCN)C(=O)N[C@@H](CCCCN)C(=O)N[C@@H](Cc1ccccc1)C(=O)NCC(=O)N[C@@H](CCCCN)C(=O)N[C@@H](C)C(=O)N[C@H]1CSSC[C@@H](C(=O)N[C@@H](CC(C)C)C(=O)N[C@@H](CC(N)=O)C(=O)N[C@@H](CO)C(=O)O)NC(=O)[C@H](CCC(=O)O)NC(=O)CNC(=O)[C@H](C(C)C)NC1=O [Mag2(i + 4)15Dc] (H-GIGKFLHSAKKFGKACVGECLNS-OH; disulfide 16-20),,
,,,,,"FFGKVLⓀLIRⓀIF‐NH2 (sidechain bridge or staple) [LS‐DAS, lysine‐stapled AMP of the external independent data set from Hu et al. ([2022])]",Positive,
,,,,,"FFGSVLⓀLIPⓀIL‐NH2 (sidechain bridge or staple) [LS‐PTa, lysine‐stapled AMP of the external independent data set from Hu et al. ([2022])]",Positive,
,,,,,"GFKDLLKGAAⓀALVⓀTVLF‐NH2 (sidechain bridge or staple) [LS‐AP1, lysine‐stapled AMP of the external independent data set from Hu et al. ([2022])]",Positive,
,,,,,"GFKDLLⓀGAAⓀALVKTVLF‐NH2 (sidechain bridge or staple) [LS‐AP2, lysine‐stapled AMP of the external independent data set from Hu et al. ([2022])]",Positive,
,,,,,"GFⓀDLLⓀGAAKALVKTVLF‐NH2 (sidechain bridge or staple) [LS‐AP3, lysine‐stapled AMP of the external independent data set from Hu et al. ([2022])]",Positive,
,,,,,"PKINLⓀILGⓀILRLAAAFK‐NH2 (sidechain bridge or staple) [LS‐PaD1, lysine‐stapled AMP of the external independent data set from Hu et al. ([2022])]",Positive,
,,,,,"PⓀINLⓀILGKILRLAAAFK‐NH2 (sidechain bridge or staple) [LS‐PaD2, lysine‐stapled AMP of the external independent data set from Hu et al. ([2022])]",Positive,
128,16,8,32,4,RILRKLKKRFLK [GAN‐P2‐3],,
128,8,8,16,4,RILRKLRKKFLK [GAN‐P2‐2],,
64,8,8,32,4,RILRKLRKRFLK [GAN‐P2‐4],,
,,,,,"VKRFKⓀFFRⓀFKKFV‐NH2 (sidechain bridge or staple) [LS‐BF1, lysine‐stapled AMP of the external independent data set from Hu et al. ([2022])]",Positive,
,,,,,"VⓀRFKⓀFFRKFKKFV‐NH2 (sidechain bridge or staple) [LS‐BF2, lysine‐stapled AMP of the external independent data set from Hu et al. ([2022])]",Positive,
16,16,4,16,2,WKRIAKRLKKKLGRAKLF [VAE‐P3‐3],,
8,16,2,4,1,WKRIARKLKRKLGRAKLF [VAE‐P3‐5],,

Compound,MIC MRSA [1] [µg/mL],MIC E. coli [2] [µg/mL],MIC S. aureus [3] [µg/mL],MIC P. aeruginosa [4] [µg/mL],MIC K. pneumoniae [5] [µg/mL],Result (stapled AMP with high antimicrobial activity in the experiment) [6],further results
CC[C@H](C)[C@H](NC(=O)[C@@H](N)CCCNC(=N)N)C(=O)N[C@@H](CC(C)C)C(=O)N[C@@H](CCCNC(=N)N)C(=O)N[C@@H](CCCCN)C(=O)N[C@@H](CC(C)C)C(=O)N[C@@H](CCCNC(=N)N)C(=O)N[C@H]1CCCCNC/C=C/CNCCCC[C@@H](C(=O)O)NC(=O)[C@H](CC(C)C)NC(=O)[C@H](Cc2ccccc2)NC(=O)[C@H](CCCCN)NC1=O [GAN‐P2‐2‐St] (H-RILRKLR[X1]KFL[X1]-OH; staple (E) 8-12),8,16,2,32,1,,Wet Exp. Result (any bacteria): Positive; increase of antibacterial activity against MRSA [1]: 16 fold; increase of antimicrobial activity against S. aureus [3]: 4 fold; increase of antimicrobial activity against K. pneumoniae [5]: 2–4 fold
CC[C@H](C)[C@H](NC(=O)[C@@H](N)CCCNC(=N)N)C(=O)N[C@@H](CC(C)C)C(=O)N[C@@H](CCCNC(=N)N)C(=O)N[C@@H](CCCCN)C(=O)N[C@@H](CC(C)C)C(=O)N[C@@H](CCCCN)C(=O)N[C@H]1CCCCNC/C=C/CNCCCC[C@@H](C(=O)O)NC(=O)[C@H](CC(C)C)NC(=O)[C@H](Cc2ccccc2)NC(=O)[C@H](CCCNC(=N)N)NC1=O [GAN‐P2‐3‐St] (H-RILRKLK[X1]RFL[X1]-OH; staple (E) 8-12),8,16,2,32,1,,Wet Exp. Result (any bacteria): Positive; increase of antibacterial activity against MRSA [1]: 16 fold; increase of antimicrobial activity against S. aureus [3]: 4 fold; increase of antimicrobial activity against K. pneumoniae [5]: 2–4 fold
